Results taken from article PMC3684770 (Free Radical Biology & Medicine, 2013).
Structures can show the parent of a compound that is named as a salt. Where two headings read alike, the source gives them in different places.

Columns and labels:
[1] = test system: 1321N1 astrocyte cell line
Description: (§1) Media were then replaced with serum-free, phenol-free media for 5 h.

[2] = test system: C6 astrocyte cell line; assay: C6 oxidative stress assay (serum withdrawal, DCF); details: for Emax: 24 h, read-out: C6 oxidative stress assay Max reduction; for IC50: read-out: C6 oxidative stress assay IC50; for C6 oxidative stress assay Toxic dose: minimum dose at which toxicity was observed; for C6 oxidative stress assay Max reduction: maximum % inhibition of DCF signal
Description: as §1

[3] = test system: Nrf2-ARE pathway; assay: ARE reporter assay in CHO 4xARE-TK-GFP cells (Spectrum library hits); details: for maximal fold induction: CHO, read-out: Fold GFP induction
Description: The Z′ score was calculated as follows Z′=1−(3SD^++3SD^−)/(Ave^+–Ave^−) where SD^+ = standard deviation of positive control wells; SD^− = standard deviation of negative control wells; Ave^+ = average fluorescence reading of positive control wells; Ave^− = average fluorescence reading of negative control wells.
Media was removed by hand and replaced (1 compound/well) with the Spectrum library diluted to 10 μM in 0.1% DMSO using a Q-bot liquid handling system (Genetix, New Milton, UK). […] The TK-GFP CHO ARE cell line was screened twice in a single point assay and the control TK-GFP CHO cell line was screened once to eliminate false positives.
The compounds were applied in triplicate to confluent cells in 96 well plates in serum free medium for 24 hours and the induction of GFP measured in a fluorescence plate reader.
In order to screen the Spectrum collection of 2000 molecules the reporter assay was optimised in […]. To assess the suitability of the assay for library screening, a Z’ score calculation was performed by treating alternate wells with vehicle (0.1% DMSO) and 10 µM Ebselen as a positive control (see calculation in Methods). […] The library was subsequently screened at a single point concentration of 10µM for every compound. Drug library dilutions and plating were performed with a Q-BOT liquid handling system and both the 4xARE-TK-GFP reporter cell line and TK-GFP control cell line were tested for their response to the compounds. Hits were identified as having data points more than three standard deviations above the background level, which was the average value of 24 wells treated with vehicle (0.1% DMSO) only. Hit compounds were checked to see if they generated a response in the control cell line, for example by non-specific activation of transcription or autofluorescence. […] The library screen was repeated once in the 4xARE –TK-CHO cell line and compounds classed as hits in both screens were taken forward for further assessment.

[4] = test system: NSC34 cells
Description: as §1

[5] = test system: NSC34 cells; assay: NSC34 oxidative stress assay (serum withdrawal, DCF); details: for Emax: NSC-34, 24 h, read-out: NSC34 oxidative stress assay Max reduction; for NSC34 oxidative stress assay Toxic dose: minimum dose at which toxicity was observed; for NSC34 oxidative stress assay Max reduction: maximum % inhibition of DCF signal, negative = prooxidant
Description: as §1

[6] = test system: 1321N1 astrocyte cell line; assay: 1321N1 oxidative stress assay (serum withdrawal, DCF); details: for Emax: 1321-N1, 24 h, read-out: 1321N1 oxidative stress assay Max reduction; for 1321N1 oxidative stress assay Toxic dose: minimum dose at which toxicity was observed; for 1321N1 oxidative stress assay Max reduction: maximum % inhibition of DCF signal
Description: as §1

[7] = test system: C6 astrocyte cell line
Description: as §1

[8] = lowest dose at which a reduction in GFP fluorescence was observed
[9] = Homo sapiens, 1321-N1, read-out: 1321N1 oxidative stress assay IC50
[10] = average fold over baseline at the maximal response, CHO cells, 24 h
[11] = 24-h preconditioning, 6-h serum withdrawal, DCF fluorescence
[12] = CHO ARE reporter, 7-point concentration response
[13] = read-out: 1321N1 oxidative stress assay IC50, 24-h preconditioning, 6-h serum withdrawal, DCF fluorescence

Row | Compound | Emax ([2]; Rattus norvegicus, Astrocyte) [%] | IC50 ([2]; Rattus norvegicus, Astrocyte) [µM] | EC50 ([3]; Cricetulus griseus) [µM] | Toxic dose [3, 8] [µM] | Emax ([5]; Mus musculus) [%] | Emax ([6]; Homo sapiens) [%] | IC50 [6, 9] [µM] | C6 oxidative stress assay Toxic dose [2] | NSC34 oxidative stress assay Toxic dose [5] | 1321N1 oxidative stress assay Toxic dose [6] | further results
1 | Oc1ccc(O)cc1 [Hydroquinone, reference compound] | 67 | 7.07 | 3.07 | 100 | 0 | 80 | 3.38 | – | – | – | 1321N1 oxidative stress assay Toxic dose [1]: None; NSC34 oxidative stress assay Toxic dose [4]: None; C6 oxidative stress assay Toxic dose [7]: None
2 | C=CC(C1=CC(=O)C(OC)=CC1=O)c1ccccc1 (stereo not drawn) [4-Methoxydalbergione] | 14 | 2.5 | – | 100 | -44 | 43 | – | none | none | none | maximal fold induction ([3]; Cricetulus griseus, 24 h): 2.11
3 | CC1(C)C(=O)C=C[C@]2(C)[C@H]3CC[C@@]4(C)[C@H](c5ccoc5)OC(=O)[C@H]5O[C@]54[C@]3(C)[C@H](O)C[C@@H]12 [Deacetylgedunin] | 70 | 5.36 | 3.5 | 30 | 0 | 28 | 2.37 | None | None | 10 µM | Fold GFP induction [3, 10]: 3.05 fold
4 | CC(COc1ccccc1)NC(C)C(O)c1ccc(O)cc1 (stereo not drawn) [Isoxsuprine hydrochloride, reference compound] | 40 | 23 | – | 100 | -16 | – | – | none | none | none | –
5 | Cc1cc(O)c(C)c(O)c1C(=O)O [3-Methylorsellinic acid] | 56 | 3.1 | 9.59 | 100 | -12 | 53 | 3.26 | none | 0.3 µM | none | –
6 | 3β Hydroxydeoxydesacetoxy-7-oxogedunin | – | – | – | 30 | – | – | – | None | 3 µM | None | C6 oxidative stress assay Max reduction [2]: 67%; IC50 [2, 11]: 3.07 µM; EC50 [3, 12]: 8.71 µM; Fold GFP induction [3, 10]: 2.55 fold; NSC34 oxidative stress assay Max reduction [5]: 0%; 1321N1 oxidative stress assay Max reduction [6]: 62%; IC50 [6, 13]: 3.96 µM
7 | COc1ccc2c(c1)OC/C(=C/c1ccc(OC)c(OC)c1)C2=O [Sappanone A trimethyl ether] | 27 | – | 3.5 | 100 | -60 | 40 | 0.279 | none | none | none | maximal fold induction ([3]; Cricetulus griseus, 24 h): 1.99
8 | COc1ccc(/C=C/C(=O)c2ccccc2)cc1 [4-Methoxychalcone] | 82 | 3.55 | 15 | 100 | 24 | 30 | 3.6 | None | None | None | Fold GFP induction [3, 10]: 2.13 fold
9 | C[C@@H]1C(=O)O[C@H]2[C@H]1CC[C@@]1(C)C=CC(=O)[C@@]3(C)O[C@@]213 [Epoxy(4,5α)-4,5-dihydrosantonin] | – | – | – | – | – | – | – | – | – | – | 1321N1 oxidative stress assay Toxic dose [1]: None; C6 oxidative stress assay Max reduction [2]: 62%; IC50 [2, 11]: 2.13 µM; Fold GFP induction [3]: 2.91 fold; Toxic dose [3]: 100 µM; EC50 [3, 12]: 18.2 µM; NSC34 oxidative stress assay Toxic dose [4]: 3 µM; NSC34 oxidative stress assay Max reduction [5]: 0%; 1321N1 oxidative stress assay Max reduction [6]: 63%; IC50 [6, 13]: 0.662 µM; C6 oxidative stress assay Toxic dose [7]: None
10 | CCc1cccc(CC)c1N(COC)C(=O)CCl [Alachlor] | 62 | 6.22 | 3.29 | – | 0 | 83 | 1.97 | – | – | none | –
11 | COc1cc(O)cc(OC)c1OC [Antiarol] | 23 | 3.05 | – | 100 | -50 | 35 | – | 10 µM | 10 µM | none | –
12 | COc1cccc(O)c1O [3-Methoxycatechol] | 46 | 1.2 | 15.4 | 100 | -13 | 39 | – | 10 µM | 0.3 µM | none | –
13 | CC(=O)Oc1ccc(O)cc1 [4-Acetoxyphenol] | 0 | – | 2.91 | 100 | -70 | 42 | 0.298 | none | none | none | –
14 | CC1=CC(=O)C(C(C)C)=CC1=O [Thymoquinone] | 32 | 0.014 | – | 30 | 0 | 25 | 11 | None | None | None | –
15 | C=C(CC)C(=O)c1ccc(OCC(=O)O)c(Cl)c1Cl [Ethacrynic acid, reference compound] | 31 | 3.01 | 14 | 100 | -30 | 25 | 3.01 | – | 10 µM | – | –
16 | C=C(C)/C=C1/C=CC(=O)C(C)=C1 [Retusoquinone] | 15 | 2.06 | – | 100 | -25 | 0 | – | none | none | none | –
17 | O=c1c2ccccc2[se]n1-c1ccccc1 [Ebselen, reference compound] | 30 | – | 4 | 100 | -80 | 20 | 0.193 | none | none | none | EC90 ([3]; Cricetulus griseus, read-out: approximate EC90): ~10 µM
18 | CC1(C)C2CC(=O)O[C@@]3(C)C4=CC(=O)O[C@@H](c5ccoc5)[C@]4(C)CCC3[C@@]2(C)C=C[C@H]1O (stereo partly drawn) [Deoxyandirobin lactone] | 38 | 2.87 | 11.1 | 100 | 0 | 65 | 1.64 | None | None | None | –
19 | O=C1C=C2C=C[C@@H]3C[C@@]2(O1)[C@H]1CCCCN31 [Securinine] | 67 | 0.645 | 2.12 | 30 | 20 | 55 | 18.3 | None | None | None | maximal fold induction ([3]; Cricetulus griseus, 24 h): 3
20 | COc1cc(O)c(C)c(O)c1 [2,6-Dihydroxy-4-methoxytoluene] | 16 | 5.29 | 45 | 100 | 28 | 40 | – | 10 µM | None | None | IC50 ([5]; Mus musculus, NSC-34, read-out: NSC34 oxidative stress assay IC50): ~3.26 µM
